Assays:
Assay in all cases: NCI DTP human tumor cell line screen (SRB)
Assay type in all cases: cell-based
CCRF-CEM = details: Leukemia, 10 μM, 48 h
Description: (§1) Representative compounds of the invention, prepared as described in EXAMPLES 1-6, were submitted to the Developmental Therapeutics Program of the United States National Cancer Institute (NCl) to screen for anti-cancer activity. The anti-cancer activities of the six compounds were tested against approximately 60 human tumor cell lines representing leukemia, melanoma, and cancers of the lung, colon, breast, ovary, kidney, prostate, and brain. The following screening methodology was provided by the NCl. […] For experimental screens, cells were inoculated into 96 well microtiter plates in 100 μL at plating densities ranging from 5,000 to 40,000 cells/well depending on the doubling time of individual cell lines. After cell inoculation, the microtiter plates were incubated at 37° C., 5% carbon dioxide, 95% air and 100% relative humidity for 24 hours prior to addition of the compounds. After 24 hours of incubation, two plates of each cell line were fixed in situ with trichloroacetic acid (TCA) to represent a measurement of the cell population for each cell line at the time of compound addition (Tz). The compounds were solubilized in dimethyl sulfoxide at 400-fold the desired final maximum test concentration and stored frozen prior to use. At the time of drug addition, frozen aliquots of the compounds thawed and diluted with complete medium containing 50 μg/ml gentamicin. Aliquots of 100 μl of these different compound dilutions were added to the appropriate microtiter wells already containing 100 μl of medium, resulting in the required final compound concentration of 10 μM. Following compound addition, the plates were incubated for an additional 48 h at 37° C., 5% carbon dioxide, 95% air, and 100% relative humidity. For adherent cells, the assay was terminated by the addition of cold TCA. Cells were fixed in situ by the gentle addition of 50 μl of cold 50% (w/v) TCA (final concentration, 10% TCA) and incubated for 60 minutes at 4° C. The supernatant was discarded, and the plates were washed five times with tap water and air dried. Sulforhodamine B (SRB) solution (100 μl) at 0.4% (w/v) in 1% acetic acid was added to each well, and plates were incubated for 10 minutes at room temperature. After staining, unbound dye was removed by washing five times with 1% acetic acid and the plates were air dried. Bound stain was subsequently solubilized with 10 mM trizma base, and the absorbance was read on an automated plate reader at a wavelength of 515 nm. For suspension cells, the methodology was the same except that the assay was terminated by fixing settled cells at the bottom of the wells by gently adding 50 μl of 80% TCA (final concentration, 16% TCA). Using the three absorbance measurements [time zero, (Tz), control growth, (C), and test growth in the presence of compound (Ti)], the percentage growth was calculated at each of the compound concentrations levels. Percentage growth inhibition was calculated with the following algorithms: [(Ti−Tz)/(C−Tz)]×100 for concentrations for which Ti>/=Tz [(Ti−Tz)/Tz]×100 for concentrations for which Ti<Tz The results of the NCl in vitro anticancer screening with six compounds against various human tumor cell lines are presented below in Tables 2-7. […] The growth percent mean, delta, and range for each compound are given below.

SF-295 = details: CNS Cancer, 10 μM, 48 h
Description: as §1

ACHN = details: Renal Cancer, 10 μM, 48 h
Description: as §1

PC-3 = details: Prostate Cancer, 10 μM, 48 h
Description: as §1

MCF7 = details: Breast Cancer, 10 μM, 48 h
Description: as §1

NCI-H460 = details: Non-Small Cell Lung Cancer, 10 μM, 48 h
Description: as §1

MDA-MB-435 = details: Breast Cancer, 10 μM, 48 h
Description: as §1

SR = details: Leukemia, 10 μM, 48 h
Description: as §1

EKVX = details: Non-Small Cell Lung Cancer, 10 μM, 48 h
Description: as §1

OVCAR-5 = details: Ovarian Cancer, 10 μM, 48 h
Description: as §1

BT-549 = details: Breast Cancer, 10 μM, 48 h
Description: as §1

UACC-62 = details: Melanoma, 10 μM, 48 h
Description: as §1

NCI-H226 = details: Non-Small Cell Lung Cancer, 10 μM, 48 h
Description: as §1

MOLT-4 = details: Leukemia, 10 μM, 48 h
Description: as §1

COLO 205 = details: Colon Cancer, 10 μM, 48 h
Description: as §1

SW-620 = details: Colon Cancer, 10 μM, 48 h
Description: as §1

CAKI-1 = details: Renal Cancer, 10 μM, 48 h
Description: as §1

RPMI-8226 = details: Leukemia, 10 μM, 48 h
Description: as §1

U251 = details: CNS Cancer, 10 μM, 48 h
Description: as §1

SNB-19 = details: CNS Cancer, 10 μM, 48 h
Description: as §1

NCI/ADR-RES = details: Breast Cancer, 10 μM, 48 h
Description: as §1

TK-10 = details: Renal Cancer, 10 μM, 48 h
Description: as §1

NCI-H23 = details: Non-Small Cell Lung Cancer, 10 μM, 48 h
Description: as §1

HS 578T = details: Breast Cancer, 10 μM, 48 h
Description: as §1

SN12C = details: Renal Cancer, 10 μM, 48 h
Description: as §1

A498 = details: Renal Cancer, 10 μM, 48 h
Description: as §1

SK-MEL-2 = details: Melanoma, 10 μM, 48 h
Description: as §1

786-0 = details: Renal Cancer, 10 μM, 48 h
Description: as §1

SK-OV-3 = details: Ovarian Cancer, 10 μM, 48 h
Description: as §1

T-47D = details: Breast Cancer, 10 μM, 48 h
Description: as §1

HCT-15 = details: Colon Cancer, 10 μM, 48 h
Description: as §1

HOP-62 = details: Non-Small Cell Lung Cancer, 10 μM, 48 h
Description: as §1

Compound	Growth Percent (CCRF-CEM) [%]	Growth Percent (SF-295) [%]	Growth Percent (ACHN) [%]	Growth Percent (PC-3) [%]	Growth Percent (MCF7) [%]	Growth Percent (NCI-H460) [%]	Growth Percent (MDA-MB-435) [%]	Growth Percent (SR) [%]	Growth Percent (EKVX) [%]	Growth Percent (OVCAR-5) [%]	Growth Percent (BT-549) [%]	Growth Percent (UACC-62) [%]	Growth Percent (NCI-H226) [%]	Growth Percent (MOLT-4) [%]	Growth Percent (COLO 205) [%]	Growth Percent (SW-620) [%]	Growth Percent (CAKI-1) [%]	Growth Percent (RPMI-8226) [%]	Growth Percent (U251) [%]	Growth Percent (SNB-19) [%]	also measured
CC1CCC2C(C)C(OCc3ccc(C(=O)NN=Cc4ccccc4O)cc3)OC3OC4(C)CCC1C32OO4 (stereo not drawn) [ART-Phe-Sal, N′-(2-hydroxybenzylidene)-4-(dihydroxyartemisinin-methyl)-phenyl carbohydrazide]	−19.45	−2.87	10.40	31.46	12.70	0.59	15.04	−44.93	28.62	49.55	25.29	−17.63	10.80	−30.65	26.59	30.24	11.04	22.87	17.18	27.53	Growth Percent (NCI/ADR-RES): 21.55%; Growth Percent (TK-10): 20.96%; Growth Percent (NCI-H23): 31.01%; Growth Percent (HS 578T): 29.71%; Growth Percent (SN12C): 25.25%; Growth Percent (A498): 0.33%; Growth Percent (SK-MEL-2): −20.76%; Growth Percent (786-0): −12.09%; Growth Percent (SK-OV-3): 17.00%; Growth Percent (T-47D): 34.12%; Growth Percent (HCT-15): 32.15%; Growth Percent (HOP-62): 12.31%
CC1CCC2C(C)C(OCc3ccc(C(=O)NN=Cc4ccccc4O)o3)OC3OC4(C)CCC1C32OO4 (stereo not drawn) [ART-Furan-Sal, N′-(2-hydroxybenzylidene)-5-(dihydroxyartemisinin-methyl)-furan-2-carbohydrazide]	−23.63	12.70	7.80	28.01	1.18	−26.28	25.70	−29.47	25.37	28.70	22.47	−5.97	13.93	−23.49	18.60	13.95	17.44	13.00	12.24	25.11	Growth Percent (NCI/ADR-RES): 11.14%; Growth Percent (TK-10): 40.77%; Growth Percent (NCI-H23): 17.54%; Growth Percent (HS 578T): 40.07%; Growth Percent (SN12C): 27.18%; Growth Percent (A498): 12.88%; Growth Percent (SK-MEL-2): −27.21%; Growth Percent (786-0): −22.22%; Growth Percent (SK-OV-3): 14.53%; Growth Percent (T-47D): 10.28%; Growth Percent (HCT-15): 30.86%; Growth Percent (HOP-62): 12.94%
CC1CCC2C(C)C(OCCn3cc(C(=O)NN=Cc4ccccc4O)nn3)OC3OC4(C)CCC1C32OO4 (stereo not drawn) [ART-Triazole-Sal, N′-(2-hydroxybenzylidene)-1-(dihydroxyartemisinin-ethyl)-1H-1,2,3-triazole-4-carbohydrazide]	−14.86	24.32	15.69	38.28	13.62	2.83	35.26	0.08	35.04	41.28	40.56	10.70	26.98	−0.29	26.05	31.03	40.15	18.69	24.89	45.73	Growth Percent (NCI/ADR-RES): 15.88%; Growth Percent (TK-10): 38.15%; Growth Percent (NCI-H23): 30.70%; Growth Percent (HS 578T): 48.29%; Growth Percent (SN12C): 45.26%; Growth Percent (A498): 50.94%; Growth Percent (SK-MEL-2): −15.86%; Growth Percent (786-0): 1.80%; Growth Percent (SK-OV-3): 32.87%; Growth Percent (T-47D): 37.45%; Growth Percent (HCT-15): 34.01%; Growth Percent (HOP-62): 24.18%
